Measured values as given in the NIST ThermoML archive (doi:10.1016/j.fluid.2014.12.040).

What was measured:
[1] = for surface tension liquid-gas: Wilhelmy-plate method; for mass density: 100 kPa, Liquid, Vibrating tube method
[2] = xn = mol fraction of the nth substance listed; settings: for surface tension liquid-gas: Wilhelmy-plate method; for mass density: 100 kPa, Liquid, Vibrating tube method

CC(C)O [propan-2-ol]
[1]
Settings	mass density [kg/m3]	surface tension liquid-gas [mN/m]
298.15 K	781.18	20.85
308.15 K	772.32	20.1
318.15 K	763.61	19.4
328.15 K	754.84	18.75

O [water] + CC(O)CO
[2], x2 = 0
Settings	mass density [kg/m3]	surface tension liquid-gas [mN/m]
298.15 K	–	72.03
308.15 K	–	70.3
318.15 K	–	68.7
328.15 K	985.66	66.9

CC(C)O [propan-2-ol] + CC(O)CO
[2], x1 = 1
Settings	mass density [kg/m3]	surface tension liquid-gas [mN/m]
298.15 K	781.18	20.85
308.15 K	772.32	20.1
318.15 K	763.61	19.4
328.15 K	754.84	18.75

O [water]
[1]
Settings	mass density [kg/m3]	surface tension liquid-gas [mN/m]
298.15 K	–	72.03
308.15 K	–	70.3
318.15 K	–	68.7
328.15 K	985.66	66.9

CC(O)CO (centres undefined) [1,2-propanediol]
[1]
Settings	mass density [kg/m3]	surface tension liquid-gas [mN/m]
298.15 K	1032.69	35.74
308.15 K	1025.21	35.35
318.15 K	1017.51	34.96
328.15 K	1009.78	34.6
